Laboratory results as given in patent US20210395250A1, “NOVEL CRYSTAL OF (3S)-3-[2-(6-AMINO-2-FLUOROPYRIDIN-3-YL)-4-FLUORO-1H-IMIDAZOL-5-YL]-7-[5-CHLORO-2-(1H-TETRAZOL-1-YL)PHENYL]-2,3-DIHYDROINDOLIZIN-5(1H)-ONE” (priority 2018, published 2021).
Values after ≈ are worked out from the molar mass of the structure shown. Read-outs that look alike come from different tables or passages of the source.

Tests used:
[1] = Evaluation of oral absorption after oral administration of suspensions to monkeys; conditions: for oral absorption rate (%): cynomolgus monkeys/male, fasted, 1 mg/kg oral suspension in 0.5% aqueous methyl cellulose, oral AUC / intravenous AUC (1 mg/kg) x 100
Experimental: The measurement of oral absorption was carried out under the following conditions.
Each of the suspensions was prepared with a 0.5% aqueous methyl cellulose solution at a concentration of 0.33 mg/mL (in terms of free base content). Each of the suspensions was administered to monkeys (cynomolgus monkeys/male), which had been fasted since the day before, in the stomach thereof forcibly with a sonde. The amount of administration was adjusted depending on the body weight of each of the monkeys so that the dosage amount became 1 mg/kg.
After the administration of the suspensions (liquid pharmaceuticals), at the timing of 0.25, 0.5, 1, 2, 4, 7 and 24 hours after the administration, blood (0.5 mL) was collected from the cephalic vein with a heparin-added syringe. The collected blood was centrifuged at 10000 G for 5 minutes to separate plasma from the blood. In the evaluation of the oral absorption of the test compounds, data obtained when the test compounds were administered intravenously at the same dose amounts (1 mg/kg) were employed. The oral absorption rate (%) was calculated by dividing an AUC (area under the blood concentration-time curve) value obtained in the oral administration by an AUC value obtained in the intravenous administration and then multiplying the resultant value by 100.
The whole volume of the solution was added to Oasis HLB μElution Plate through which acetonitrile (200 μL) and purified water (200 μL) had been passed, and was then sucked under reduced pressure. Purified water (200 μL) was added to the solution, and the resultant solution was washed by sucking under reduced pressure. Acetonitrile (200 μL) was added to the solution, the resultant solution was sucked under reduced pressure, and an eluate was collected in a 96-well plate. The eluate (10 μL) was added to a 0.1% aqueous formic acid solution/acetonitrile (2/1) solution (290 μL), and the resultant solution was stirred and was then analyzed by LC/MS/MS.
The analysis by LC/MS/MS was carried out under the following conditions.
Measurement device: API-5000 (manufactured by Applied Biosystems/MDS SCIEX) Analysis column: Cadenza CD-C18 (2.0 mm I.D.×100 mm, 3 μm) Flow rate: 0.4 mL/min. Components of mobile phase: a 0.1% aqueous formic acid solution/acetonitrile (0 minute: 65/35, 4.0 minutes: 65/35, 4.1 minutes: 10/90, 5.0 minutes: 10/90, 5.1 minutes: 65/35, 7.0 minutes: 65/35) Scan type: MRM (Multiple Reaction Monitoring)

[2] = Evaluation of solubility in JP 1st fluid and artificial intestinal juice (FaSSIF), HPLC; type: physicochemical; conditions: after 24 hours; for solubility at 24 h: 37 °C, thermodynamic from solid
Experimental: The measurement of solubility was carried out under the following conditions.
About 3 mg of each of the compounds of the present invention was weighed in a test tube, then a stirrer and 5 mL of each of an artificial intestinal juice (FaSSIF; Reference Document 1: Pharmaceutical Research, vol. 20, pp. 1674-1680, 2003; Reference Document 2: Biological & Pharmaceutical Bulletin, vol. 34, pp. 401-407, 2011) and JP 1st fluid which had been warmed to 37° C. were added to the test tube, and then the test tube was sealed hermetically. The test tube was installed in a solubility test device (Gilson, Quad-Z 215), and the solution was stirred at 37° C. and 700 rpm. After 0.25, 0.5, 1, 3, 6 and 24 hours, an aliquot of the solution in the test tube was collected. The collected solution was filtrated through a filter, and a filtrate was diluted two-folds with acetonitrile. A diluted solution of the artificial intestinal juice was centrifuged at 3000 rpm for 5 minutes, and a supernatant was used as a sample solution. A diluted solution of the JP 1st fluid was used as is as a sample solution. Solubility was calculated by a high-performance liquid chromatography method.
Column: Waters Xbridge ShieldRP18 (4.6 mm (inner diameter)×50 mm, 3.5 μm) Column temperature: 40° C. Component of mobile phase: 20 mM potassium dihydrogen phosphate (pH 3.0)/acetonitrile (0 minute: 70/30, 5 minutes: 25/75)
Flow rate: 1.0 mL/min Sample rack temperature: 15° C. Sample injection amount: 10 μL Measurement time: 5 minutes Retention time: 2.6 minutes

[3] = Evaluation of hygroscopicity: isothermal absorption curve measurement (DVS); type: physicochemical
Experimental: Physical Chemical Example 1: Evaluation of Hygroscopicity
An isothermal absorption curve measurement (DVS) was carried out under the following conditions.
Device: DVS Intrinsic, manufactured by SMS
Measurement temperature: 25° C.
Measurement range: relative humidity of 0 to 95%
Interval of measurement: relative humidity of 5%

[4] = artificial intestinal juice (FaSSIF), 37° C., 700 rpm
[5] = artificial intestinal juice (FaSSIF), 37° C.

Compound	hygroscopicity (in words) [3]	oral absorption rate (%) [1] [%]	Solubility, JP 1st fluid ([2]; JP 1st fluid, 37° C., 700 rpm) [μg/m]	Solubility, Artificial intestinal juice [2, 4] [μg/m]	solubility in the artificial intestinal juice [2, 5] [µg/mL]	further results
Nc1ccc(-c2nc(F)c([C@@H]3CCc4cc(-c5cc(Cl)ccc5-n5cnnn5)cc(=O)n43)[nH]2)c(F)n1 [Example 1(11), (3S)-3-[2-(6-amino-2-fluoro-3-pyridinyl)-4-fluoro-1H-imidazol-5-yl]-7-[5-chloro-2-(1H-tetrazol-1-yl)phenyl]-2,3-dihydro-5(1H)-indolizinone dihydrate]	high hygroscopicity					oral absorption rate (%) ([1]; dihydrate): 26%; oral absorption (in words) ([1]; monkeys, oral): poor oral absorption; solubility at 24 h ([2]; JP 1st fluid, simulated gastric fluid, JP 1st fluid, 700 rpm, read-out: Solubility, JP 1st fluid): 41 µg/mL; solubility at 24 h ([2]; JP 1st fluid, simulated gastric fluid, JP 1st fluid, read-out: solubility in the JP 1st fluid): 41 µg/mL; solubility at 24 h ([2]; artificial intestinal juice (FaSSIF), fassif, artificial intestinal juice (FaSSIF), 700 rpm, read-out: Solubility, Artificial intestinal juice): 47 µg/mL; solubility at 24 h ([2]; artificial intestinal juice (FaSSIF), fassif, artificial intestinal juice (FaSSIF), read-out: solubility in the artificial intestinal juice): 47 µg/mL
(3S)-3-[2-(6-Amino-2-fluoropyridin-3-yl)-4-fluoro-1H-imidazol-5-yl]-7-[5-chloro-2-(1H-tetrazol-1-yl)phenyl]-2,3-dihydroindolizin-5(1H)-one-3-hydroxybenzoic acid (1/1) [Example 5]	low hygroscopicity					
Nc1ccc(-c2nc(F)c([C@@H]3CCc4cc(-c5cc(Cl)ccc5-n5cnnn5)cc(=O)n43)[nH]2)c(F)n1 [Example 5, (3S)-3-[2-(6-Amino-2-fluoropyridin-3-yl)-4-fluoro-1H-imidazol-5-yl]-7-[5-chloro-2-(1H-tetrazol-1-yl)phenyl]-2,3-dihydroindolizin-5(1H)-one-3-hydroxybenzoic acid (1/1)]		~100	75	60	60 (≈ 118 µM)	solubility in the JP 1st fluid ([2]; JP 1st fluid, 37° C.): 75 µg/mL (≈ 148 µM); weight change rate ([3]; DVS, 25° C., relative humidity of 0 to 95%): less than 1%
(3S)-3-[2-(6-Amino-2-fluoropyridin-3-yl)-4-fluoro-1H-imidazol-5-yl]-7-[5-chloro-2-(1H-tetrazol-1-yl)phenyl]-2,3-dihydroindolizin-5(1H)-one-nicotinamide (2/1) [Example 4]		44	77	60	60	
